In US9783511B2, “Carbamate benzoxazine propionic acids and acid derivatives for modulation of RORgamma activity and the treatment of disease” (Merck Sharp & Dohme Corp., priority 2013, dated 2017):

Target: human RORgammaT-Ligand Binding Domain (LBD) (Homo sapiens (Human), UniProt P51449)
Experiment: RORγ-Ligand Binding Domain TR-FRET Assay (co-activator peptide SRC1_2 recruitment)
Format: biochemical
Details: HIS-tagged RORγ-LBD 3 nM, biotinylated SRC1 LXXLL peptide 100 nM, incubated overnight at 4° C., 665 nm/615 nm ratio
Summary of the method: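 E. coli-expressed, Ni2+-purified HIS-tagged human RORγ-LBD at 3 nM final in 50 mM Tris pH 7.0, 50 mM KCl, 1 mM EDTA, 0.1 mM DTT, 100 μg/mL delipidated BSA. TR-FRET read-out of SRC1_2 co-activator peptide recruitment; compounds dispensed acoustically.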

Chain of human RORgammaT-Ligand Binding Domain (LBD) (P51449 269-508): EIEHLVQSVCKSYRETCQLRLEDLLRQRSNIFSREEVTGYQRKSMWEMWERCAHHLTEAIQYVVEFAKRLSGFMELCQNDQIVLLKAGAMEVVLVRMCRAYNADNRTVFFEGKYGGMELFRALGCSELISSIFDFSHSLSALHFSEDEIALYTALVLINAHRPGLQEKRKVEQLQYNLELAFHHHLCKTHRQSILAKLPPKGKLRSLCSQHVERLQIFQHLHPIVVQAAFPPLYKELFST

| IC50 [µM] | SMILES |
| --- | --- |
| 0.0038 | COc1cc(S(=O)(=O)N2C[C@H](CCC(=O)O)Oc3ccc(NC(=O)O[C@@H](C)C(C)(C)C)cc32)ccc1F (single isomer, unassigned) [Example 24C, 3-{(2S)-4-[(4-fluoro-3-methoxyphenyl)sulfonyl]-6-[({[(1S or 1R)-1,2,2-trimethylpropyl]oxy}carbonyl)amino]-3,4-dihydro-2H-1,4-benzoxazin-2-yl}propanoic acid] |
| 0.0177 | COc1cc(S(=O)(=O)N2C[C@H](CCC(=O)O)Oc3ccc(NC(=O)OCC4(C(F)(F)F)CC4)cc32)ccc1F [Example 24A, 3-{(2S)-4-[(4-fluoro-3-methoxyphenyl)sulfonyl]-6-[({[1-(trifluoromethyl)cyclopropyl]methoxy}carbonyl)amino]-3,4-dihydro-2H-1,4-benzoxazin-2-yl}propanoic acid] |
| 0.00901 | CC(C)(OC(=O)Nc1cc(F)c2c(c1)N(S(=O)(=O)c1cncc(C(F)(F)F)c1)C[C@H](CCC(=O)O)O2)C(F)(F)F [Example 29i, 3-[(2S)-8-fluoro-6-{[(2,2,2-trifluoro-1,1-dimethylethoxy)carbonyl]ami-no}-4-{[5-(trifluoromethyl)pyridin-3-yl]sulfonyl}-3,4-dihydro-2H-1,4-benzoxazin-2-yl]propanoic acid] |
| 0.00968 | CCn1cc(S(=O)(=O)N2C[C@H](CCC(=O)O)Oc3c(F)cc(NC(=O)OC(C)(C)C(F)(F)F)cc32)c(Cl)n1 [Example 29C, 3-[(2S)-4-[(3-chloro-1-ethyl-1H-pyrazol-4-yl)sulfonyl]-8-fluoro-6-{[(2,2,2-trifluoro-1,1-dimethylethoxy)carbonyl]ami-no}-3,4-dihydro-2H-1,4-benzoxazin-2-yl]propanoic acid] |

Second part, the molecule before the results:

| SMILES | IC50 [µM] |
| --- | --- |
| Cc1cc(S(=O)(=O)N2C[C@H](C[C@@H](C(=O)O)C3CC3)Oc3ccc(NC(=O)OC(C)(C)C(F)(F)F)cc32)ccc1F (single isomer, unassigned) [Example 10T, (R or S)-2-cyclopropyl-3-((S)-4-((4-fluoro-3-methylphenyl)sulfonyl)-6-((((1,1,1-trifluoro-2-methylpropan-2-yl)oxy)carbonyl)amino)-3,4-dihydro-2H-benzo[b][1,4]oxazin-2-yl)propanoic acid] | 0.016 |
| CC(C)(OC(=O)Nc1ccc2c(c1)N(S(=O)(=O)c1cc(C3CC3)ccc1F)C[C@H](CCC(=O)O)O2)C(F)(F)F [Example 6CH, 3-[(2S)-4-[(5-cyclopropyl-2-fluorophenyl)sulfonyl]-6-{[(2,2,2-trifluoro-1,1-dimethylethoxy)carbonyl]amino}-3,4-dihydro-2H-1,4-benzoxazin-2-yl]propanoic acid] | 0.0181 |
| CC(C)(OC(=O)Nc1ccc2c(c1)N(S(=O)(=O)c1cccc(C3CC3)c1)C[C@@H](CC1(C(=O)O)CC1)O2)C(F)(F)F [Example 14D, (R)-1-((4-((3-cyclopropylphenyl)sulfonyl)-6-((((1,1,1-trifluoro-2-methylpropan-2-yl)oxy)carbonyl)amino)-3,4-dihydro-2H-benzo[b][1,4]oxazin-2-yl)mehtyl)cyclopropanecarboxy-lic acid] | 0.0367 |
| CCc1nc(S(=O)(=O)N2C[C@H](C[C@@H](C)C(=O)O)Oc3ccc(NC(=O)OC(C)(C)C(F)(F)F)cc32)c(OCC(F)(F)F)s1 (single isomer, unassigned) [Example 6BR, (R or S)-3-((S)-4-((2-ethyl-5-(2,2,2-trifluoroethoxy)thiazol-4-yl)sulfonyl)-6-((((1,1,1-trifluoro-2-methylpropan-2-yl)oxy)carbonyl)amino)-3,4-dihydro-2H-benzo[b][1,4]oxazin-2-yl)-2-methylpropanoic acid] | 0.0123 |
| C[C@H](C[C@H]1CN(S(=O)(=O)c2cccc(OC(F)F)c2)c2cc(NC(=O)OC(C)(C)C(F)(F)F)ccc2O1)C(=O)O (single isomer, unassigned) [Example 6CM, (S or R)-3-((S)-4-((3-(difluoromethoxy)phenyl)sulfonyl)-6-((((1,1,1-trifluoro-2-methylpropan-2-yl)oxy)carbonyl)amino)-3,4-dihydro-2H-benzo[b][1,4]oxazin-2-yl)-2-methylpropanoic acid] | 0.00525 |
| COc1cc(S(=O)(=O)N2C[C@H](C[C@@](C)(O)C(=O)O)Oc3ccc(NC(=O)OC(C)(C)C(F)(F)F)cc32)ccc1F (single isomer, unassigned) [Example 18A, (R or S)-3-((S)-4-((4-fluoro-3-methoxyphenyl)sulfonyl)-6-((((1,1,1-trifluoro-2-methylpropan-2-yl)oxy)carbonyl)amino)-3,4-dihydro-2H-benzo[b][1,4]oxazin-2-yl)-2-hydroxy-2-methylpropanoic acid] | 0.0129 |
| CC(C)(OC(=O)Nc1ccc2c(c1)N(S(=O)(=O)c1cncc(C3CC3)c1)C[C@H](CCC(=O)O)O2)C(F)(F)F [Example 6BV, 3-[(2S)-4-[(5-cyclopropylpyridin-3-yl)sulfonyl]-6-{[(2,2,2-trifluoro-1,1-dimethylethoxy)carbonyl]amino}-3,4-dihydro-2H-1,4-benzoxazin-2-yl]propanoic acid] | 0.00884 |
| CC(C)(OC(=O)Nc1ccc2c(c1)N(S(=O)(=O)c1c(Cl)nc3sccn13)C[C@H](CCC(=O)O)O2)C(F)(F)F [Example 6AF, (S)-5-((2-(2-carboxyethyl)-6-((((1,1,1-trifluoro-2-methylpropan-2-yl)oxy)carbonyl)amino)-2H-benzo[b][1,4]oxazin-4(3H)-yl)sulfonyl)-6-chloroimidazo[2,1-b]thiazole] | 0.0062 |
| CC(C)(OC(=O)Nc1ccc2c(c1)N(S(=O)(=O)c1cccc(OC(F)(F)F)c1)C[C@H](CCC(=O)O)O2)C(F)(F)F [Example 6S, (S)-3-(6-((((1,1,1-trifluoro-2-methylpropan-2-yl)oxy)carbonyl)amino)-4-((3-(trifluoromethoxy)phenyl)sulfonyl)-3,4-dihydro-2H-benzo[b][1,4]oxazin-2-yl)propanoic acid] | 0.006 |
| CC[C@H](C[C@H]1CN(S(=O)(=O)c2cccc(C3CC3)c2)c2cc(NC(=O)OC(C)(C)C(F)(F)F)ccc2O1)C(=O)O (single isomer, unassigned) [Example 10D, (R or S)-2-(((S)-4-((3-cyclopropylphenyl)sulfonyl)-6-((((1,1,1-trifluoro-2-methylpropan-2-yl)oxy)carbonyl)amino)-3,4-dihydro-2H-benzo[b][1,4]oxazin-2-yl)methyl)butanoic acid] | 0.0128 |
| C[C@@H]1[C@H](CCC(=O)O)Oc2ccc(NC(=O)OC(C)(C)C(F)(F)F)cc2N1S(=O)(=O)c1cccc(C(F)(F)F)c1 [Example 25, 3-((2S,3R)-3-methyl-6-((((1,1,1-trifluoro-2-methylpropan-2-yl)oxy)carbonyl)amino)-4-((3-(trifluoromethyl)phenyl)sulfonyl)-3,4-dihydro-2H-benzo[b][1,4]oxazin-2-yl)propanoic acid] | 0.0101 |
